Source: ChEMBL document CHEMBL1128459, “Characterization of potent and selective antagonists at postsynaptic 5-HT1A receptors in a series of N4-substituted arylpiperazines” (J Med Chem, 1995)

How the values were obtained:
[1] = target: 5-hydroxytryptamine receptor 1A (Rattus norvegicus) (UniProt P19327); test: Ki ratio measured as the Ki values of dopamine receptor to that of 5-hydroxytryptamine 1A receptor receptor.
[2] = target: 5-hydroxytryptamine receptor 1A (Rattus norvegicus) (UniProt P19327); test: Ki ratio measured as the Ki values of dopamine receptor to that of 5-hydroxytryptamine 1A receptor

5-hydroxytryptamine receptor 1A (Rattus norvegicus), sequence (P19327 whole entry, looked up): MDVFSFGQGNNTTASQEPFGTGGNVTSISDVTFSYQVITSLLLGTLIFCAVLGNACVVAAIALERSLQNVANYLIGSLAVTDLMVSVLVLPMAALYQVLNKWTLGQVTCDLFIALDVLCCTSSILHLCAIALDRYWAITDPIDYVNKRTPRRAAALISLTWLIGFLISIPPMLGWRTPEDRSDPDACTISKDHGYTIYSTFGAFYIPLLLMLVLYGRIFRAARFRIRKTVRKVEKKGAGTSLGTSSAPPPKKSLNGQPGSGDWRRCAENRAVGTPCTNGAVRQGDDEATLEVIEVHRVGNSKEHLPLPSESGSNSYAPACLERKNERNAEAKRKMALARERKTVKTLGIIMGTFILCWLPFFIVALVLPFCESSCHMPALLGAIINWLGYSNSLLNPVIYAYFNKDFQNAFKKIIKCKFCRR

SMILES | Ki ratio [1] | Ki ratio [2]
c1ccc2c(c1)CC(N1CCN(c3cccc4c3OCCO4)CC1)C2 | 195 | 
c1ccc2c(c1)CC(N1CCN(c3cccc4c3OCCCO4)CC1)C2 |  | 51.3
c1ccc2c(c1)CC2CCN1CCN(c2cccc3c2OCCO3)CC1 (stereo unspecified) | 79.4 | 
COc1ccccc1N1CCN(C[C@@H](C(=O)NC(C)(C)C)c2ccccc2)CC1 | 12 | 
Clc1cccc2c1CC2CCN1CCN(c2cccc3c2OCCO3)CC1 (stereo unspecified) |  | 26.9
COc1cc2c(cc1OC)C(CCN1CCN(c3cccc4c3OCCO4)CC1)CC2 (stereo unspecified) |  | 83.4
